**Q.** For Cn1cc(-c2nc(C(F)F)c(C(=O)N3CCC(O)(c4ccc(Cl)cc4)CC3)cc2C#N)cn1, which melting point is on record?
**A.** Its melting point is 220 °C.

**Q.** Which melting point does the source give for Cc1nc(C2CCN(C(=O)c3cc(C#N)c(-c4ccc(Cl)s4)nc3C)CC2)no1 here?
**A.** The melting point was 69 to 71 °C.

**Q.** Which melting point does the source give for N#Cc1cc(C(=O)N2CCC(O)(c3ccc(Cl)cc3)CC2)c(C(F)F)nc1-c1ccc(C(F)(F)F)nc1 here?
**A.** Its melting point is 177 to 180 °C.

**Q.** Which melting point does the source give for N#Cc1cc(C(=O)N2CCC(O)(c3ccc(Cl)cc3)CC2)c(C(F)F)nc1-c1ccc(Cl)cn1 here?
**A.** Its melting point is 175 to 177 °C.

**Q.** With N#Cc1cc(C(=O)N2CCC(c3noc(O)n3)C2)c(C(F)F)nc1-c1ccc(C(F)(F)F)cc1 (centres unmarked) as the molecule, how does the melting point read?
**A.** The melting point was 181 to 184 °C.

**Q.** Which melting point does the source give for N#Cc1cc(C(=O)N2CCC(O)(c3ccccc3Cl)C2)c(C(F)F)nc1-c1ccc(C(F)(F)F)cc1 (centres unmarked) here?
**A.** Its melting point is 191 to 195 °C.

**Q.** For Cc1nc(C2CCN(C(=O)c3cc(C#N)c(-c4ccc(C(F)(F)F)cn4)nc3C)CC2)no1, which melting point is on record?
**A.** The melting point was 60 to 62 °C.

**Q.** With CCCn1cc(-c2nc(C(F)F)c(C(=O)N3CCC(O)(c4ccc(Cl)cc4)CC3)cc2C#N)cn1 as the molecule, how does the melting point read?
**A.** The melting point was 193 to 195 °C.

**Q.** With N#Cc1cc(C(=O)N2CCC(O)(c3ccc(Cl)cc3)CC2)c(C(F)F)nc1-c1ccc(C(F)(F)F)cc1 as the molecule, how does the melting point read?
**A.** The melting point was 200 °C.

**Q.** For N#Cc1cc(C(=O)N2CCC(O)(c3ccc(Cl)cc3)CC2)c(C(F)F)nc1-c1ccnc(F)c1, which melting point is on record?
**A.** Its melting point is 150 to 155 °C.

**Q.** Which melting point does the source give for CO[C@@]1(c2ccc(C)cc2)[C@@H]2CC[C@H]1CN(C(=O)c1cc(C#N)c(-c3ccc(C(F)(F)F)cc3)nc1C(F)F)C2 here?
**A.** The melting point was 228 to 230 °C.

Source: patent US11178872B2 (dated 2021)
